Measured values from US20100041756A1, “METHOD OF MODULATING B CELL FUNCTIONING” (priority 2004, published 2010).
Where “and” joins values, the source holds several entries; their conditions need not be identical. Equal values may be shown once.

Assays:
[1] = tested on: B cells activated with LPS; assay: B cell proliferation, BrdU uptake detected by FACS analysis (Example 2); type: cell-based; details: Mus musculus, LPS-induced, 100 μg/ml tranilast (FIG. 3), read-out: maximum inhibition of proliferation
Method: FIG. 3 is a graphical representation of the inhibition of B cell proliferation by tranilast. B-cells were activated in vitro with LPS, and 1-100 μg/ml tranilast. Proliferation was assessed using BrdU uptake, detected by FACs analysis. LPS induced proliferation in 72% of cells.
B cells were prepared for mouse spleen using rat anti-mouse IgM microbeads and the MACS system.
3 spleens were removed from male DBA/1 mice aged 8-12 weeks. A single cell suspension was prepared by cell-sieve.
Cells were cultured at 1×10^6 cells/ml in 2 ml complete RPMI with glutamine (10% FCS, 1% Pen/Strep, 50 μM 2-Mercaptoethanol, 1 mM Na-Pyruvate) for 48 h in the presence of LPS (20 μg/ml), and 100-25 μg/ml tranilast, or vehicle (DMSO).
20 μM BrdU (Sigma) was added to each well, and incubated overnight.
FACS analysis of staining was performed on the BD LSR Flow Cytometer.

[2] = tested on: anti-type II collagen IgG1 and IgG2a; assay: Serum anti-collagen antibody levels in mice with established CIA (ELISA); type: in vivo, mouse; details: 10 days treatment
Method: ELISA plates (Nunc, Uxbridge, UK) were coated with 2 μg/ml of bovine CII dissolved overnight in Tris Buffer (0.05 M Tris, containing 0.2 M NaCl, pH 7.4) blocked with 2% bovine serum albumin (BSA) and then incubated with serial dilutions of test sera. A reference sample was included on each plate. Bound total IgG, IgG1 or IgG2a was detected by incubation with HRP-conjugated sheep anti-mouse IgG, IgG1 or IgG2a, followed by TMB substrate. Optical density was measured at 450 nm.

IL-10 = assay: Serum IL-10 in mice with established CIA (ELISA); type: in vivo, mouse; details: 10 days treatment (FIG. 7)
Method: Mice with established CIA were treated with 3,4-DAA or vehicle (n=7) for 10 days (see FIG. 6), then bled. IL-10 in the sera was measured by ELISA.
Inguinal lymph nodes were excised from Tranilast-treated and control mice. Alternatively, inguinal lymph nodes were removed from untreated arthritic mice (day 1-5 of arthritis) and Tranilast was added in vitro. In both cases, LNC were cultured in RPMI 1640 containing FCS (10% v/v), 2-mercaptoethanol (20 μM), L-glutamine (1% w/v), penicillin (100 U/ml) and streptomycin (100 μg/ml) in the presence or absence of type II collagen (50 μg/ml). Secreted cytokines (IFN-γ, IL-5, TNFα and IL-10) were measured after 72 h. by ELISA. In brief, 96 well ELISA plates were coated with the respective capture antibody, blocked with bovine serum albumin (2% w/v), and then incubated with LNC culture supernatants (neat) overnight at 4° C. After washing, bound cytokines were detected using biotinylated detect antibodies. A standard curve was generated using known concentrations of the appropriate recombinant cytokine and the concentrations of cytokines present in culture supernatants were estimated by reference to the standard curve.

[3] = tested on: T cells stimulated with anti-CD3/anti-CD28; assay: Purified T cell proliferation, anti-CD3/anti-CD28, 3H-thymidine incorporation (Example 4); type: cell-based, mouse
Method: FIG. 10 is a graphical representation depicting that 3,4-DAA and 3-HAA inhibit B and T cell proliferation in vitro. Purified B and T cells were stimulated for 72 h with anti-CD40 (a), or anti-CD3/anti-CD28 (b) respectively, in the presence of varying doses of 3,4-DAA, or 3-HAA.
A single cell suspension was prepared from spleen by mincing through a cell strainer, and erythrocytes were lysed using an ammonium chloride solution (Sigma, St Louis, Mo., USA). B cells were positively enriched by using anti-IgM MACS microbeads, and T cells were positively enriched using anti-CD4 MACS microbeads and the MACS system, according to the manufacturer's guidelines (Miltenyi Biotec, Bergisch Gladbach, Germany). Purity was assessed by flow cytometric analysis (B cell>90% CD19+, T cell>90% CD4+). Cells were cultured at 5×10^5 cells/ml in 200 μl complete RPMI, as above, in a flat bottom 96-well plate and cultured for 72 h. B cells were stimulated with anti-CD40 monoclonal antibody (10 μg/ml; BD), and T cells were stimulated with 5 μg/ml plate-bound anti-CD3 (BD), 5 μg/ml soluble anti-CD28 (BD). Tranilast, 3-HAA, or vehicle (DMSO) were incubated at concentrations stated with the cultures. 48 hours after stimulation, 100 μl culture medium was collected, and cells were pulsed with 1 μCi ^3H thymidine per well for 18 h. Cells were then harvested and plates assessed for incorporation. Each assay was performed on a minimum of 3 occasions. Data shown is of one representative experiment, and is expressed as mean+/−SD of triplicate in culture. IFN-γ, IL-10 and IL-5 levels was assessed in the culture medium by ELISA, as above.

[4] = tested on: anti-type II collagen IgG1; assay: Inhibition of anti-type II collagen antibody production in vivo (Example 5); set-up: species or system mouse
Method: Female DBA/1 mice (10 weeks of age) were immunised intraperitoneally on day 1 with 100 μg bovine type II collagen, dissolved in 0.05M Tris/0.2M NaCl, pH 7.4). Tranilast was dissolved in 1% sodium bicarbonate (10 mg/ml) by heating for 1 h at 70° C. Upon cooling, an emulsion was formed. Tranilast was administered intraperitoneally for three weeks (starting on day 1) at a dose of 400 mg/kg, every 2-3 days. Controls received vehicle alone. There were six mice per group.
On day 28 mice were bled and serum levels of anti-type II collagen IgG1 and IgG2a were measured by ELISA, as follows:
1. Polystyrene microtitre plates (Immulon 2, Dynatech Laboratories) were coated with DEAE-purified bovine type II collagen, dissolved in 0.2M NaCl/0.05M Tris, pH 7.4 (5 μg/ml), overnight at 4° C. 2. The plates were washed in phosphate-buffered saline (PBS), then blocked with BSA in PBS (2% w/v) for 1 h at room temperature. 3. After washing in PBS, containing Tween 20 (0.05% v/v), the sera were serially diluted in PBS/Tween, added to the plates and incubated for 2 h at room temperature. 4. After washing in PBS/Tween, bound IgG was detected by incubating goat anti-mouse IgG1 or anti-mouse IgG2a-HRP conjugate ( 1/1000) for 2 h at room temperature. 5. Develop colour reaction using TMB substrate. Stop reaction with 4.5NH2SO4 6. The plates were read at 450 nm on a microtitre plate reader.

[5] = individual mice, day 28, 400 mg/kg i.p. every 2-3 days for three weeks

COc1ccc(/C=C/C(=O)Nc2ccccc2C(=O)O)cc1OC [Tranilast, 2-[[3-(3,4-dimethoxyphenyl)-1-oxo-2-propenyl]amino]benzoic acid]
inhibition at 100 µg/mL [1]: 75% | levels of anti-type II collagen IgG1 and IgG2a in sera [2]: no differences were observed | circulating IL-10 levels (IL-10): dose-dependent increase | circulating IL-10 levels (IL-10; listed as 3,4-DAA): increased IL-10 levels | IC50 ([3]; Mus musculus, T-cell, anti-CD3/CD28, 72 h, 3H-thymidine (FIG. 10B), read-out: IC50 for inhibition of T cell proliferation): 28 µM | T cell proliferation ([3]; anti-CD3/CD28, varying doses (FIG. 10B)): dose-dependently inhibited | Levels of anti-type II collagen IgG1 ([4]; group comparison, P=0.03, Mann Whitney test): significantly higher in the control group versus the Tranilast treated group | OD450 (dilution 1/100), anti-type II collagen IgG1 [4, 5]: 0.07 and 0.06 (2×) and 0.31 and 0.08 (2×) | Titre (reciprocal), anti-type II collagen IgG1 [4, 5]: <50 (4×) and <1/50 and 150
